Results as given in patent US9458219B2, “Human insulin analogue and acylated derivative thereof” (Shanghai Hengrui Pharmaceutical Co., Ltd., priority 2011, dated 2016).

Columns and labels:
[1] = system: rat models sufferring from diabetes (STZ); experiment: In vivo long-acting activity assay of PEGylated insulin; parameters: species or system Sprague-Dawley (SD) rats; details: for Blood glucose value (%): Humulin R 0.04, Detemir 0.2, PEG insulins 0.1 mg/kg; for AOC % / IP (Index of Prolongation): s.c.
Procedure: Sprague-Dawley (SD) rats, male, used in this experiment were purchased from SINO-BRITSH SIPPR/BK LAB. ANIMAL LTD., CO, License number: SCXK (Shanghai) 2008-0016, 18-20 g. The rats were fed in an environment of SPF level. ICR male mice were fed three days in a laboratory environment, at temperature of 20-25° C., and humidity of 40-60%. The mice were fasted for 8 hrs before the experiment. 100 mg/kg STZ was intraperitoneally injected to establish rat models sufferring from diabetes. Two days later, fasting blood glucose values were measured. […] At the beginning of the experiment, rats were weigh, and the blood glucose levels were measured (cut off tails and the blood glucose levels were detected by using Roche Glucometer and the corresponding test strips, similarly hereafter). On the basis of blood glucose values, rats were randomly divided into groups, 43 rats per group. The drug to be used was prepared in required concentrations. After subcutaneous injection of drugs, blood glucose levels were measured at multiple time points. IP (Index of Prolongation) was calculated according to blood glucose level.

[2] = system: rat models sufferring from diabetes (STZ); experiment: In vivo long-acting activity assay of insulin derivatives; parameters: species or system Sprague-Dawley (SD) rats; details: s.c., Humulin R 0.04, Detemir 0.2, others 0.1 mg/kg
Procedure: The rats were fed in an environment of SPF level. […] 100 mg/kg STZ was intraperitoneally injected to establish rat models sufferring from diabetes. Two days later, fasting blood glucose values were measured. […] At the beginning of the experiment, rats were weigh, and the blood glucose levels were measured (cut off tails and the blood glucose levels were detected by using Roche Glucometer and the corresponding test strips, similarly hereafter). On the basis of blood glucose values, rats were randomly divided into groups, 43 rats per group. The drug to be used was prepared in required concentrations. After subcutaneous injection of drugs, blood glucose levels were measured at multiple time points. IP (Index of Prolongation) was calculated according to blood glucose level.

[3] = Table 5, Humulin R 0.04, Detemir 0.2, PEG (20 kD) insulins 0.1 mg/kg
[4] = Table 6, Humulin R 0.04, Detemir 0.2, PEG (30/40 kD) insulins 0.1 mg/kg

## Detemir
[1]; Table 5, 0 h
  Blood glucose value (%): 100%
[1]; Table 5, 1 h
  Blood glucose value (%): 96.63%
[1]; Table 5, 2 h
  Blood glucose value (%): 57.24%
[1]; Table 5, 4 h
  Blood glucose value (%): 32.49%
[1]; Table 5, 6 h
  Blood glucose value (%): 40.98%
[1]; Table 5, 8 h
  Blood glucose value (%): 86.94%
[1]; Table 5, 10 h
  Blood glucose value (%): 112.66%
[1]; Table 5, 12 h
  Blood glucose value (%): 127.52%
[1]; [3]
  AOC %: 7.39%
  IP (Index of Prolongation): 100
[1]; [4]
  AOC %: 5.92%
  IP (Index of Prolongation): 100
[1]; Table 6, time 0
  Blood glucose value (%): 100.00%
[1]; Table 6, time 1
  Blood glucose value (%): 104.15%
[1]; Table 6, time 2
  Blood glucose value (%): 74.83%
[1]; Table 6, time 3
  Blood glucose value (%): 46.46%
[1]; Table 6, time 4
  Blood glucose value (%): 23.36%
[1]; Table 6, time 6
  Blood glucose value (%): 17.11%
[1]; Table 6, time 8
  Blood glucose value (%): 32.52%
[1]; Table 6, time 10
  Blood glucose value (%): 94.89%
[1]; Table 6, time 12
  Blood glucose value (%): 110.45%
[2]; 0 h
  Blood glucose level (%): 100.00%
[2]; 0.5 h
  Blood glucose level (%): 72.21%
[2]; 1 h
  Blood glucose level (%): 35.57%
[2]; 2 h
  Blood glucose level (%): 14.45%
[2]; 4 h
  Blood glucose level (%): 16.32%
[2]; 6 h
  Blood glucose level (%): 23.80%
[2]; 8 h
  Blood glucose level (%): 34.77%
[2]; 10 h
  Blood glucose level (%): 51.42%
[2]; 12 h
  Blood glucose level (%): 39.68%
[2]; 14 h
  Blood glucose level (%): 58.06%
[2]; 16 h
  Blood glucose level (%): 74.84%
[2]; 18 h
  Blood glucose level (%): 91.67%
[2]; 20 h
  Blood glucose level (%): 99.05%
[2]
  AOC: 69.2
  IP (Index of Prolongation): 100
